For 10 molecules, inhibition in vivo and responders results are on record in US4666907A, “Phenothiazine and derivatives and analogs and use as leukotriene biosynthesis inhibitors” (Merck Frosst Canada, Inc., priority 1986, dated 1987).

The subject of test [1] is asthmatic rats. In words: Asthmatic rat assay (duration of dyspnoea after egg albumin aerosol). The format is in vivo. The conditions noted are these: po; for inhibition in vivo at 3 mg/kg: 3 mg/kg p.o.; for inhibition in vivo at 1.5 mg/kg: 1.5 mg/kg p.o.; for inhibition in vivo at 0.5 mg/kg: 0.5 mg/kg p.o. The source says: Rats were obtained from an inbred line of asthmatic rats. Both female and male rats from 200 to 300 g were used.
Egg albumin (EA), grade V, crystallized and lyophilized, was obtained from Sigma Chemical Co., St. Louis. Bordetella pertussis vaccine, containing 30×10^9 killed bacteria per ml was obtained from the Institut Armand-Frappier, Laval des Rapides, Quebec. Aluminum hydroxide was obtained from the Regeis Chemical Company, Chicago.
The challenge and subsequent respiratory recordings were carried out in a clear plastic box with internal dimensions 10×6×4 inches. The top of the box was removable; in use, it was held firmly in place by four clamps and an airtight seal was maintained by a soft rubber gasket. […] A Fleisch No. 0000 pneumotachograph was inserted into one end of the box and coupled to a Grass volumetric pressure transducer (PT5-A) which was then connected to a Beckman Type R Dynograph through appropriate couplers. While aerosilizing the antigen, the outlets were open and the pneumotachograph was isolated from the chamber. The outlets were closed and the pneumotachograph and the chamber were connected during the recording or the respiratory patterns. For challenge, 2 ml of a 3% solution of antigen in saline was placed into each nebulizer and the aerosol was generated with air from a small Potter diaphragm pump operating at 10 psi and a flow of 8 liters/minutes.
Rats were sensitized by injection (s.c.) 1 ml of a suspension containing 1 mg EA and 200 mg aluminum hydroxide in saline. Simultaneously, they received an injection (i.p.) of 0.5 ml of B. pertussis vaccine. They were used between days 14 and 18 postsensitization. In order to eliminate the serotonin component of the response, rats were pretreated intravenously 5 minutes prior to aerosol challenge with […] methylserzide. Rats were then exposed to an aerosol of 3% EA in saline for exactly 1 minute, then their respiratory profiles were recorded for a further 25-30 minutes. The duration of continuous dyspnoea was measured from the respiratory recordings.
Compounds were generally administered either intraperitoneally 1 hour prior to challenge or orally 11/2 hours prior to challenge. They were either dissolved in dimethylsulfoxide or suspended in 0.1% methocel and 0.5% Tween 80. The volume injected has 2 ml kg^-1 (intraperitoneally) or 10 ml kg^-1 (orally). Prior to oral treatment rats were starved overnight. Their activity was determined in terms of their ability to decrease the duration of symptoms of dyspnoea in comparison with a group of vehicle-treated controls. Usually, a compound was evaluated at a series of doses and an ED50 was determined. This was defined as the dose (mg/kg) which would inhibit the duration of symptoms by 50%.

Test [2] concerns PAF-induced hyperalgesia in Sprague-Dawley rats. In words: PAF-induced hyperalgesia assay (vocalization threshold, rat paw). The format is in vivo. The conditions noted are these: po, read-out: PAF Induced Hyperalgesia Assay % inhibition; for responders at 3 mg/kg: 3 mg/kg p.o.; for responders at 1 mg/kg: 1 mg/kg p.o. The protocol: Female Sprague-Dawley rats, 35-40 g were fasted overnight. Platelet activating factor, PAF, (L-lecithin B-acetyl O-alkyl) 1 μg/0.1 ml was given by subplantar injection in the rat paw. The compounds to be evaluated were homogenized in aqueous Vehicle (0.9% benzyl alcohol, 0.5% Tween 80 and 0.4% methylcellulose) and administered orally in a volume of 0.1 ml, 30 minutes prior to PAF.
Animals were tested 1, 2, 3 and 4 hours after PAF administration. The vocalization threshold, defined as the pressure (mm Hg) needed to evoke a squeak response, was recorded for both the injected and contralateral paw. No animal was subjected to pressure greater than 60 mm Hg. Hyperalgesia is defined as a decrease in vocalization threshold as compared to a normal paw. Percent inhibition of hyperalgesia was calculated as the proportion of animals with vocalization thresholds greater than 200% of controls.

As to `O=S1(=O)c2ccccc2Nc2ccc(O)cc21`, the inhibition in vivo (usually the change of the read-out against control, counted positive when it falls) at 3 mg/kg in test [1] turned out to be 70%. The responders at 3 mg/kg in test [2] worked out at 60%.
With `O=S1(=O)c2ccccc2Nc2ccc(O)c(Cl)c21`, testing at 1.5 mg/kg in test [1] gave an inhibition in vivo of 59%. Also, the responders at 1.2 mg/kg in test [2] (1.2 mg/kg p.o.) amounted to 50%.
As for `COc1ccc2c(c1)Sc1cc(C)ccc1N2C`, the inhibition in vivo at 3 mg/kg in test [1] amounted to 58%. For the same molecule, the responders at 1 mg/kg in test [2] amounted to 30%.
As for `COc1ccc2c(c1)Sc1c(cc(OC)c(OC(C)=O)c1Br)N2C(C)=O`, at 0.5 mg/kg the inhibition in vivo in test [1] was 58%. Moreover, the responders at 0.03 mg/kg in test [2] (0.03 mg/kg p.o.) was 60%.
Take `COc1ccc2c(c1)Sc1c(cc(OC)c(O)c1Br)N2C(C)=O`: in test [1], at 1.5 mg/kg the inhibition in vivo was 78%. Further, the responders at 0.1 mg/kg in test [2] (0.1 mg/kg p.o.) amounted to 60%.
In test [1] (5.0 mg/kg p.o.), `COc1ccc2c(c1)Sc1c(cc(OC)c(O)c1Br)N2C(=O)OC(C)OC(C)=O` (centres unmarked) returned an inhibition in vivo at 5 mg/kg of 42%. The responders at 3 mg/kg in test [2] was 60%.
`c1ccc2c(c1)Nc1ccccc1S2` [drawing 61]: in test [1], 0.5 mg/kg produced 53% inhibition in vivo. Moreover, the responders at 3 mg/kg in test [2] worked out at 50%.
The molecule `COc1ccc2c(c1Cl)Sc1ccccc1N2C` [drawing 64] displayed an inhibition in vivo at 0.2 mg/kg in test [1] (0.2 mg/kg p.o.) of 50%. For the same molecule, the responders at 0.016 mg/kg in test [2] (0.016 mg/kg p.o.) worked out at 50%.
In the case of `CC(C)C(=O)Oc1ccc2c(c1Cl)Sc1ccccc1N2C` [drawing 66], the inhibition in vivo at 3 mg/kg in test [1] was found to be 35%. Besides, in test [2], the responders at 1 mg/kg was found to be 70%.
Molecule `COc1ccc2c(c1Cl)Sc1ccccc1N2C(C)=O` [drawing 70] showed an inhibition in vivo at 1.5 mg/kg in test [1] of 59%. Moreover, in test [2] (0.01 mg/kg p.o.), the responders at 0.01 mg/kg stood at 50%.
